Measured values reported in patent US20230172971A1, “ANTIBIOTIC AND ANTI-INFLAMMATORY COMPOSITIONS AND METHODS OF USE” (priority 2020, published 2023).
≈ marks a conversion by molar mass, not a printed value. Read-outs that look alike come from different tables or passages of the source.

Tests used:
[1] = tested on: Pseudomonas aeruginosa strain BAA-47; test: Checkerboard assay azithromycin + 600-Da BPEI, P. aeruginosa BAA-47; format: cell-based
Experimental: (§1) Checkerboard assays were conducted to identify synergy between BPEI and antibiotics against bacteria. Serial dilutions of antimicrobial agents (BPEI and antibiotic solutions) were added to a 96-well microtiter plate with 100 μL CAMHB per well. Untreated control and positive control (5% bleach) were also conducted. Bacterial inoculation (5×10^5 CFU/mL) from an overnight culture was added to the plate (1 μL/well) and incubated at 37° C. for 20 hr. The change in optical density at 600 nm (ΔOD600) was measured using a Tecan Infinite M20 plate reader immediately after inoculation Minimum inhibitory concentration (MIC) of each drug is determined as the lowest concentration that inhibited cell growth (ΔOD600<0.05). Fractional inhibitory concentration index (FICI) and synergistic effects are determined using EUCAST guidelines: synergy (FICI≤0.5), additivity (0.5<FICI<1), and indifference (FICI>1). Each assay was done in triplicate.

[2] = tested on: PA OU19; test: MicroScan Walkaway MIC panel, PA OU19; format: cell-based, P. aeruginosa
[3] = tested on: MRSA OU6; test: MicroScan Walkaway MIC panel, MRSA OU6; format: cell-based, Staphylococcus aureus; settings: for MIC: Staphylococcus aureus
Excerpt: (§2) The multi-drug resistance characteristics of the clinical isolates was confirmed using the Beckman Coulter MicroScan Walkaway™ 96plus with the PC33 gram positive panel. The MIC values are listed below.

[4] = tested on: MRSA OU11; test: MicroScan Walkaway MIC panel, MRSA OU11; format: cell-based, Staphylococcus aureus; settings: for MIC: Staphylococcus aureus
Excerpt: as §2

[5] = tested on: MRSA OU11; test: Checkerboard assay erythromycin + 600-Da BPEI, MRSA OU11; format: cell-based, Staphylococcus aureus; settings: for MIC Antibiotic: MRSA OU11, antibiotic alone
Experimental: as §1

[6] = tested on: MRSA OU6; test: Checkerboard assay erythromycin + 600-Da BPEI, MRSA OU6; format: cell-based, Staphylococcus aureus; settings: for MIC Antibiotic: MRSA OU6, antibiotic alone
Experimental: as §1

[7] = tested on: PA OU19; test: Checkerboard assay erythromycin + 600-Da BPEI, PA OU19; format: cell-based, P. aeruginosa
Experimental: as §1

[8] = tested on: E. coli BAA-2452; test: Checkerboard assay, CRE E. coli BAA-2452 (NDM-1); format: cell-based, Escherichia coli; settings: NDM-1 strain; over the susceptibility breakpoint
Experimental: (§3) Checkerboard assays were used to determine the synergistic effect between PEG350-BPEI or 600 Da BPEI and antibiotics against drug resistant strains growing in cation-adjusted Mueller-Hinton broth (CAMHB). […] Cells were grown at 37° C. The change in OD600 (optical density at 600 nm) was measured and recorded after 24 hr of treatment. Each checkerboard trial was done in triplicate using sterile Greiner CellStar™ flat bottom polystyrene plates, catalog #655180.

[9] = tested on: K. pneumoniae BAA-2146; test: Checkerboard assay, CRE K. pneumoniae BAA-2146 (NDM-1); format: cell-based, Klebsiella pneumoniae; settings: NDM-1 strain; over the susceptibility breakpoint
Experimental: as §3

[10] = tested on: K. pneumoniae BAA-1705(blaKPC+/blaNDM−); test: Checkerboard assay, CRE K. pneumoniae BAA-1705 (blaKPC+/blaNDM-); format: cell-based, Klebsiella pneumoniae; settings: FIGS. 11A and 11C
Experimental: as §3

[11] = tested on: HEKa cells (primary human epithelial keratinocytes); test: Cytokine release (IL-8, IL-6, TNF-alpha) by HEKa cells, Quantikine ELISA; format: cell-based; settings: PG or LPS 5 μg/mL, 24 hr; for TNF-α concentration released by HEKa cells: untreated control <10; for IL-6 concentration released by HEKa cells: untreated control <50
Experimental: (§4) Materials included HEKa cells (primary human epithelial keratinocytes; Invitrogen), Epilife Medium and growth supplement (Invitrogen), lipopolysaccharides from Escherichia coli O111:B4 (Sigma), peptidoglycan from Staphylococcus aureus (Sigma), and Human (IL-8/CXCL8, IL-6, TNF-alpha) Quantikine ELISA Kits (R&D). HEKa cells were seeded in T-75 tissue culture flasks with Epilife media supplemented with human keratinocyte growth supplement 100 ug/mL and 100 U/mL of pen/strep and incubated at 37° C. in a CO2 incubator. Fresh media was replaced every 2 days. Until the cell confluence reach 80-90%, they were split into a new passage. To avoid cell senescence, all experiments were performed with cells at passage 3-7. HEKa cells were cultured in a new 24-well plate until 80-90% confluence (total V=1 mL/well). […] The cell media was collected in 1.5 mL Eppendorf microtubes and stored at −20° C. until ELISA assays were performed. Concentrations of IL-8, IL-6, TNF-α cytokines released into the media were quantified followed the instructions of Quantikine Colorimetric ELISA assay kits (R&D Systems). Absorbance was measured at 450 nm and 570 nm. Final corrected absorbance was the subtraction […].
as §4, with “HEKa” for “Materials included HEKa cells (primary human epithelial keratinocytes; Invitrogen), Epilife Medium and growth supplement (Invitrogen), lipopolysaccharides from Escherichia coli O111:B4 (Sigma), peptidoglycan from Staphylococcus aureus (Sigma), and Human (IL-8/CXCL8, IL-6, TNF-alpha) Quantikine ELISA Kits (R&D). HEKa”, “senescent,” for “senescence,”, “volume=1” for “V=1”, “IL-8 cytokine” for “IL-8, IL-6, TNF-α cytokines”

[12] = Pseudomonas aeruginosa, read-out: MIC
[13] = MRSA OU6, MicroScan, read-out: MIC
[14] = MRSA OU11, MicroScan, read-out: MIC
[15] = MRSA OU11, erythromycin + 600-Da BPEI
[16] = MRSA OU6, erythromycin + 600-Da BPEI
[17] = PA OU19, erythromycin + 600-Da BPEI

| Compound | susceptibility interpretation [2] | MIC [3, 13] [µg/mL] | MIC [4, 14] [µg/mL] | susceptibility interpretation ([3]; MRSA OU6, MicroScan) | susceptibility interpretation ([4]; MRSA OU11, MicroScan) | other results |
| --- | --- | --- | --- | --- | --- | --- |
| CC[C@H]1OC(=O)[C@H](C)[C@@H](O[C@H]2C[C@@](C)(OC)[C@@H](O)[C@H](C)O2)[C@H](C)[C@@H](O[C@@H]2O[C@H](C)C[C@H](N(C)C)[C@H]2O)[C@](C)(O)C[C@@H](C)CN(C)[C@H](C)[C@@H](O)[C@]1(C)O [azithromycin] | – | – | – | – | – | growth inhibition by the combination with 600-Da BPEI [1]: inhibits growth |
| C[C@H]1[C@H](NC(=O)/C(=N\OC(C)(C)C(=O)O)c2csc(N)n2)C(=O)N1S(=O)(=O)O [aztreonam] | resistant | – | – | – | – | MIC [2, 12]: 16 µg/mL (≈ 36.7 µM) |
| CO/N=C(\C(=O)N[C@@H]1C(=O)N2C(C(=O)[O-])=C(C[N+]3(C)CCCC3)CS[C@H]12)c1csc(N)n1 [cefepime] | resistant | – | – | – | – | MIC [2, 12]: 16 µg/mL (≈ 33.3 µM) |
| CC(C)(O/N=C(\C(=O)N[C@@H]1C(=O)N2C(C(=O)[O-])=C(C[n+]3ccccc3)CS[C@H]12)c1csc(N)n1)C(=O)O [ceftazidime] | resistant | – | – | – | – | MIC [2, 12]: 16 µg/mL (≈ 29.3 µM) |
| CCC[C@@H]1C[C@@H](C(=O)N[C@@H]([C@H]2O[C@H](SC)[C@H](O)[C@@H](O)[C@H]2O)[C@H](C)Cl)N(C)C1 [clindamycin] | – | > 4 | > 4 | – | – | – |
| CCCCCCCCCC(=O)N[C@@H](Cc1c[nH]c2ccccc12)C(=O)N[C@H](CC(N)=O)C(=O)N[C@@H](CC(=O)O)C(=O)N[C@@H]1C(=O)NCC(=O)N[C@@H](CCCN)C(=O)N[C@@H](CC(=O)O)C(=O)N[C@H](C)C(=O)N[C@@H](CC(=O)O)C(=O)NCC(=O)N[C@H](CO)C(=O)N[C@@H]([C@H](C)CC(=O)O)C(=O)N[C@@H](CC(=O)c2ccccc2N)C(=O)O[C@@H]1C [daptomycin] | – | ≤ 0.5 | ≤ 0.5 | susceptible | susceptible | – |
| CC[C@H]1OC(=O)[C@H](C)[C@@H](O[C@H]2C[C@@](C)(OC)[C@@H](O)[C@H](C)O2)[C@H](C)[C@@H](O[C@@H]2O[C@H](C)C[C@H](N(C)C)[C@H]2O)[C@](C)(O)C[C@@H](C)C(=O)[C@H](C)[C@@H](O)[C@]1(C)O [erythromycin] | – | > 4 | > 4 | resistant | resistant | MIC Antibiotic [5]: over 2000 μg/mL; MIC Antibiotic ([5]; listed as Erythromycin): >2000 µg/mL; FICI [5, 15]: 0.31; Outcome [5, 15]: Synergy; MIC Antibiotic [6]: over 2000 μg/mL; MIC Antibiotic ([6]; listed as Erythromycin): >2000 µg/mL; FICI [6, 16]: 0.26; Outcome [6, 16]: Synergy; MIC Antibiotic with 16 μg/ml BPEI ([6]; MRSA OU6, with 16 μg/ml 600-Da BPEI): 8 µg/mL; FICI [7, 17]: 0.26; Outcome [7, 17]: Synergy; MIC Antibiotic with 16 μg/ml BPEI ([7]; PA OU19, with 16 μg/ml 600-Da BPEI): 2 µg/mL |
| C[C@@H](O)[C@H]1C(=O)N2C(C(=O)O)=C(SCCN=CN)C[C@H]12 [imipenem] | – | – | – | – | – | MIC of the carbapenem without potentiator [8]: > 2 µg/mL; MIC of the carbapenem without potentiator [9]: > 2 µg/mL |
| CC(=O)NC[C@H]1CN(c2ccc(N3CCOCC3)c(F)c2)C(=O)O1 [linezolid] | – | 2 (≈ 5.93 µM) | 2 (≈ 5.93 µM) | susceptible | susceptible | – |
| C[C@@H](O)[C@H]1C(=O)N2C(C(=O)O)=C(S[C@@H]3CN[C@H](C(=O)N(C)C)C3)[C@H](C)[C@H]12 [meropenem] | resistant | – | – | – | – | MIC of the carbapenem without potentiator [8]: > 8 µg/mL; MIC [2, 12]: 8 µg/mL (≈ 20.9 µM); MIC of the carbapenem without potentiator [9]: > 8 µg/mL; susceptibility of the strain to the carbapenem [10]: resistant |
| Cc1onc(-c2ccccc2)c1C(=O)N[C@@H]1C(=O)N2[C@@H]1SC(C)(C)[C@@H]2C(=O)O [oxacillin] | – | > 2 | > 2 | resistant | resistant | – |
| CN(C)[C@@H]1C(O)=C(C(N)=O)C(=O)[C@@]2(O)C(O)=C3C(=O)c4c(O)cccc4[C@@](C)(O)[C@H]3C[C@@H]12 [tetracycline] | – | ≤ 4 | ≤ 4 | – | – | – |
| NC[C@H]1O[C@H](O[C@H]2[C@H](O)[C@@H](O[C@H]3O[C@H](CO)[C@@H](O)[C@H](N)[C@H]3O)[C@H](N)C[C@@H]2N)[C@H](N)C[C@@H]1O [tobramycin] | susceptible | – | – | – | – | MIC [2, 12]: 4 µg/mL (≈ 8.56 µM) |
| CN[C@H](CC(C)C)C(=O)N[C@H]1C(=O)N[C@@H](CC(N)=O)C(=O)N[C@H]2C(=O)N[C@H]3C(=O)N[C@H](C(=O)N[C@H](C(=O)O)c4cc(O)cc(O)c4-c4cc3ccc4O)[C@H](O)c3ccc(c(Cl)c3)Oc3cc2cc(c3O[C@@H]2O[C@H](CO)[C@@H](O)[C@H](O)[C@H]2O[C@H]2C[C@](C)(N)[C@H](O)[C@H](C)O2)Oc2ccc(cc2Cl)[C@H]1O [vancomycin] | – | – | – | susceptible | susceptible | MIC ([3]; MRSA): 2 µg/mL (≈ 1.38 µM); MIC ([4]; MRSA): 1 µg/mL (≈ 0.69 µM) |
| gentamicin | susceptible | – | – | susceptible | susceptible | MIC [2]: 4 µg/mL |
| lipopolysaccharide [LPS] | – | – | – | – | – | TNF-α concentration released by HEKa cells [11]: ~30 pg/mL; IL-6 concentration released by HEKa cells [11]: ~350 pg/mL |
| peptidoglycan [PG] | – | – | – | – | – | TNF-α concentration released by HEKa cells [11]: ~30 pg/mL; IL-6 concentration released by HEKa cells [11]: ~350 pg/mL |
